Data from patent US20260048062A1, “FUSED AMINO PYRIMIDINE COMPOUNDS FOR TREATMENT OF PSYCHOSIS AND PSYCHOTIC DISORDERS” (Ovid Therapeutics Inc., priority 2024, published 2026).

How the values were obtained:
KCC2-S940A = target: T1, KCC2-S940A (Homo sapiens, UniProt Q9H2X9, S963A); assay: Tl+ flux assay, HEK-293 cells expressing KCC2-S940A; assay type: cell-based
T1 construct: expressed in transfected cells; host or cells: HEK-293
T1 sequence (Q9H2X9 1-1116 isoform Q9H2X9-2 S940A): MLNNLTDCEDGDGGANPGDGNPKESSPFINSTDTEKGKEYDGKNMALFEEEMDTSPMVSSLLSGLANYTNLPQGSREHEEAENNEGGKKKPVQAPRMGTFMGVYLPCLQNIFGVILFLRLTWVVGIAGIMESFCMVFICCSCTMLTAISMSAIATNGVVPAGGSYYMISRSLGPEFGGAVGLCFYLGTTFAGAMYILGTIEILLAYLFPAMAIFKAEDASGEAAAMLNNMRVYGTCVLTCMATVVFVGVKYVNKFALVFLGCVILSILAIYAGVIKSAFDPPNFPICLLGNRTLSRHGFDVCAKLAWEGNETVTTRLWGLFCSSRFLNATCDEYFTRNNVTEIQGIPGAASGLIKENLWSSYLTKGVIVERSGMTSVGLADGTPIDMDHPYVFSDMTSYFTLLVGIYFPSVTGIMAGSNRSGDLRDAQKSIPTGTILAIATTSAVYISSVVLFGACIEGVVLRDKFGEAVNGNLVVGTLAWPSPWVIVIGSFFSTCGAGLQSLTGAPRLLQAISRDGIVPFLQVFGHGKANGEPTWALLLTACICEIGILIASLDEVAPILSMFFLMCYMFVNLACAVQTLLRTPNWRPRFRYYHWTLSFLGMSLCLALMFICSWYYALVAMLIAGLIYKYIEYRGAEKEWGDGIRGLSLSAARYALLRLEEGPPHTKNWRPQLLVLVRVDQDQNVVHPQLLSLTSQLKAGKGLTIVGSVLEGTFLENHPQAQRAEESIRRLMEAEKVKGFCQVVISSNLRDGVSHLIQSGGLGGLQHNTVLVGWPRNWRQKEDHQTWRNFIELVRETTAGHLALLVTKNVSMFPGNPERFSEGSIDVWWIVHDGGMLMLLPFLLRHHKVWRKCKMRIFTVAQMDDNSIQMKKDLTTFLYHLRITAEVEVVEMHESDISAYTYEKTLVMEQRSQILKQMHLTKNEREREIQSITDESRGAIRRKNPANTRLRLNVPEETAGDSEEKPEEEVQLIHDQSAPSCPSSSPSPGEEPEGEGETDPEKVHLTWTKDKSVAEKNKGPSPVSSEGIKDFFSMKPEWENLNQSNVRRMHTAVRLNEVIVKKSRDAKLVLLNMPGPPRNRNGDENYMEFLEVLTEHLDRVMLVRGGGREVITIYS
Method: (§1) FLIPR TI Flux assay. HEK-293 cells were washed with HBSS, and then incubated with loading buffer containing TI sensitive fluorescent dye (https://www.moleculardevices.com), 20 μM bumetanide 20 μM ouabain and 2.5 mM probenecid for 1 h at room temperature (RT) under control conditions or with drugs in the dark using a FlexStation 3 microplate reader (Molecular Devices) and imaged […] for 30 min. Stimulus buffer was added containing 5 mM K^+/0.5 mM Tl^+ and cells were imaged every 1.5 over a 190 second time course The initial rate Tl^+ uptake (Relative Fluorescence Units (RFU) per second) was determined following addition of the stimulus buffer as outlined previously (Conway et al., 2017, supra) (Lee et al., 2022, supra).
(§2) Compared to KCC2, effects on KCC3, KCC4, and NKCC1 were only seen at concentrations more than 35-fold that of KCC2 (>100 μM) (FIG. 1G).

NKCC1 = target: T2, NKCC1 (Homo sapiens, UniProt P55011); assay: Tl+ flux assay, HEK-293 cells expressing NKCC1; assay type: cell-based; conditions: read-out: concentration at which effects on NKCC1 were seen
T2 construct: expressed in transfected cells; host or cells: HEK-293
T2 sequence (P55011 1-1212): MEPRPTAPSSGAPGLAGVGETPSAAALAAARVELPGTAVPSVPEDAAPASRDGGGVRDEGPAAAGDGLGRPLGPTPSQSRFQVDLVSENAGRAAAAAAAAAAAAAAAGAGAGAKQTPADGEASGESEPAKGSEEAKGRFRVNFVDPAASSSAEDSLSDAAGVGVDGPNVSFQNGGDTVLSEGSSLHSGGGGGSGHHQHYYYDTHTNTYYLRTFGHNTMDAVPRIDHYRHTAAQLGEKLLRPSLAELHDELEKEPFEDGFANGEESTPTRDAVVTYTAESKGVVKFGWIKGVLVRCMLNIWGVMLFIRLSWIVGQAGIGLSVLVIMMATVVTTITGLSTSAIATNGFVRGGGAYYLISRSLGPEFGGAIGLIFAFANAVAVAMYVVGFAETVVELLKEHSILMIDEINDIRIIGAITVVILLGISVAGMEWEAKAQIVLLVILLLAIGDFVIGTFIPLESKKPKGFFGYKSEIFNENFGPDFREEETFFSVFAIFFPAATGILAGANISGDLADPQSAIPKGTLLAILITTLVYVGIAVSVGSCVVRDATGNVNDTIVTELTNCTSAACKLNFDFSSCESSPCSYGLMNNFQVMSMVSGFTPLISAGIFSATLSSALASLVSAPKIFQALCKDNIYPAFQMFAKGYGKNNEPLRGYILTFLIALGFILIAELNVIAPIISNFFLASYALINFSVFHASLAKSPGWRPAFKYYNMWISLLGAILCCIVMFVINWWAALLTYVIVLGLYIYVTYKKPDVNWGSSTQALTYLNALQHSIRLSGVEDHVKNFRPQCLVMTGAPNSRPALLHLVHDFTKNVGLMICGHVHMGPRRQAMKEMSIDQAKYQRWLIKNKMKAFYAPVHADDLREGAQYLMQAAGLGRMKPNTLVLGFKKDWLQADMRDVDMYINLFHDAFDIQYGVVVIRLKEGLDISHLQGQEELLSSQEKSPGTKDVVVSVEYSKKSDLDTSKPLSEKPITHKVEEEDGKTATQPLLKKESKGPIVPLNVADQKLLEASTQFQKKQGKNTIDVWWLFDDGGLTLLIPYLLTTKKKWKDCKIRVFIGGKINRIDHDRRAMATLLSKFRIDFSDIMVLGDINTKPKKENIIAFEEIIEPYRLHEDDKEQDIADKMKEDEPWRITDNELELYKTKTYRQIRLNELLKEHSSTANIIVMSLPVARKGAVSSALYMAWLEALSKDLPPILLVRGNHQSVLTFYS
Method: as §1, §2

hippocampus = assay: Neuronal cell death in the hippocampus, Compound A with diazepam; assay type: in vivo; conditions: mice, Compound A and diazepam vs diazepam alone

SMILES: C[C@@H]1CN(c2nc3c(c(Nc4ccc(C5CCCCC5)cc4)n2)COC3)CCO1 [Compound A, (R)—N-(4-cyclohexylphenyl)-2-(2-methylmorpholino)-5,7-dihydrofuro[3,4-d]pyrimidin-4-amine]
- activity of KCC2-S940A construct (KCC2-S940A): increased the activity
- EC50 (NKCC1): > 100 µM
- neuronal cell death in the hippocampus (hippocampus): significantly reduced
